Experimental data taken from patent publication US8952024B2, “Herbicidal pyrimidone derivatives” (E I du Pont de Nemours and Company, priority 2009, dated 2015).

What was measured:
Assay type in all cases: in vivo
[1] = test system: wheat (Triticum aestivum); assay: Test B pre-/postemergence plant response
How it was run: (§1)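 Seeds were sown in loam soil/sand blend and treated preemergence with compound in non-phytotoxic solvent mixture containing surfactant; postemergence sprays, same formulation, went onto plants 2 to 18 cm (1- to 4-leaf stage) in peat-based planting medium. Greenhouse 13 to 15 days, then visual rating versus untreated controls, 0 (no effect) to 100 (complete control).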

kochia (Kochia scoparia) = assay: Test B pre-/postemergence plant response; conditions: for Kochia plant response rating: 250 g ai/ha, scale 0 to 100
How it was run: as §1

[2] = test system: green foxtail (Setaria viridis); assay: Test B pre-/postemergence plant response
How it was run: as §1

[3] = test system: goosegrass (Eleusine indica); assay: Test B pre-/postemergence plant response
How it was run: as §1

[4] = test system: downy bromegrass (Bromus tectorum); assay: Test B pre-/postemergence plant response
How it was run: as §1

[5] = test system: pigweed (Amaranthus retroflexus); assay: Test B pre-/postemergence plant response
How it was run: as §1

[6] = test system: giant foxtail (Setaria faberii); assay: Test B pre-/postemergence plant response
How it was run: as §1

[7] = test system: cocklebur (Xanthium strumarium); assay: Test B pre-/postemergence plant response
How it was run: as §1

[8] = test system: morningglory (Ipomoea coccinea); assay: Test B pre-/postemergence plant response
How it was run: as §1

[9] = test system: wheat (Triticum aestivum); assay: Test A pre-/postemergence plant response
How it was run: (§2)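 Seeds planted in loam soil/sand blend; test chemicals in non-phytotoxic solvent mixture with surfactant applied as directed soil spray preemergence and, concurrently, postemergence to plants 2–10 cm tall at one- to two-leaf stage. Greenhouse ~10 days; visual injury vs untreated controls, 0 (no effect) to 100 (complete control).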

[10] = test system: large crabgrass (Digitaria sanguinalis); assay: Test A pre-/postemergence plant response
How it was run: as §2

[11] = test system: morningglory (Ipomoea spp.); assay: Test A pre-/postemergence plant response
How it was run: as §2

[12] = test system: velvetleaf (Abutilon theophrasti); assay: Test A pre-/postemergence plant response
How it was run: as §2

[13] = 250 g ai/ha, Preemergence, 0 to 100 scale
[14] = Postemergence, 62 g ai/ha, scale 0 (no effect) to 100 (complete control), 13 to 15 days
[15] = Postemergence, 125 g ai/ha, visual rating after 13 to 15 days, scale 0 (no effect) to 100 (complete control)
[16] = Preemergence, 31 g ai/ha, scale 0 to 100 (0 no effect, 100 complete control)
[17] = Preemergence, 125 g ai/ha, 0 to 100 scale
[18] = Postemergence, 31 g ai/ha, scale 0 to 100 (0 no effect, 100 complete control)
[19] = Postemergence, 250 g ai/ha, scale 0 to 100
[20] = Preemergence, 62 g ai/ha, scale 0 to 100, 0 no effect, 100 complete control
[21] = Postemergence, 125 g ai/ha, visual injury, 0 to 100 scale (0 no effect, 100 complete control), approx. ten days
[22] = Postemergence, 500 g ai/ha, 0 to 100 scale, 0 = no effect, 100 = complete control, approx. ten days
[23] = Preemergence, 125 g ai/ha, 0 to 100 scale, 0 = no effect, 100 = complete control
[24] = Preemergence, 500 g ai/ha, visual injury, 0 to 100 scale (0 no effect, 100 complete control), approx. ten days
[25] = 31 g ai/ha, postemergence, scale 0 to 100, 0 is no effect, 100 is complete control

## Cc1cc(F)ccc1-n1c(-c2ccccc2)ncc(C(=O)C2=C(O)CCCC2=O)c1=O [Compound 48]
[1]; [13]
  Plant response rating, Wheat: 0
[1]; [14]
  Plant response rating, Wheat: 0
[1]; [15]
  Plant response rating, Wheat: 10
[1]; [16]
  Plant response rating, Wheat: 0
[1]; [17]
  Wheat plant response rating: 0
Kochia (Kochia scoparia); [14]
  Plant response rating, Kochia: 98
Kochia (Kochia scoparia); [15]
  Plant response rating, Kochia: 100
Kochia (Kochia scoparia); Postemergence
  Kochia plant response rating: 100
[2]; [13]
  Plant response rating, Foxtail, Green: 98
[2]; [18]
  Plant response rating, Foxtail, Green: 85
[2]; [14]
  Plant response rating, Foxtail, Green: 95
[2]; [15]
  Plant response rating, Foxtail, Green: 95
[2]; [19]
  Foxtail, Green plant response rating: 95
[2]; [16]
  Plant response rating, Foxtail, Green: 60
[2]; [20]
  Plant response rating, Foxtail, Green: 60
[2]; [17]
  Foxtail, Green plant response rating: 98
[3]; [13]
  Plant response rating, Goosegrass: 100
[3]; [14]
  Plant response rating, Goosegrass: 85
[3]; [15]
  Plant response rating, Goosegrass: 95
[3]; [19]
  Goosegrass plant response rating: 98
[3]; [16]
  Plant response rating, Goosegrass: 98
[3]; [17]
  Goosegrass plant response rating: 100
[4]; [13]
  Plant response rating, Bromegrass, Downy: 45
[4]; [18]
  Plant response rating, Bromegrass, Downy: 10
[4]; [14]
  Plant response rating, Bromegrass, Downy: 25
[4]; [15]
  Plant response rating, Bromegrass, Downy: 50
[4]; [19]
  Bromegrass, Downy plant response rating: 70
[4]; [16]
  Plant response rating, Bromegrass, Downy: 0
[4]; [20]
  Plant response rating, Bromegrass, Downy: 0
[4]; [17]
  Bromegrass, Downy plant response rating: 0
[5]; [13]
  Plant response rating, Pigweed: 100
[5]; [14]
  Plant response rating, Pigweed: 85
[5]; [15]
  Plant response rating, Pigweed: 100
[5]; [16]
  Plant response rating, Pigweed: 100
[5]; [17]
  Pigweed plant response rating: 100
[6]; [13]
  Plant response rating, Foxtail, Giant: 98
[6]; [18]
  Plant response rating, Foxtail, Giant: 85
[6]; [14]
  Plant response rating, Foxtail, Giant: 85
[6]; [15]
  Plant response rating, Foxtail, Giant: 95
[6]; [19]
  Foxtail, Giant plant response rating: 98
[6]; [16]
  Plant response rating, Foxtail, Giant: 20
[6]; [20]
  Plant response rating, Foxtail, Giant: 75
[6]; [17]
  Foxtail, Giant plant response rating: 85
[7]; [13]
  Plant response rating, Cocklebur: 85
[7]; [18]
  Plant response rating, Cocklebur: 95
[7]; [14]
  Plant response rating, Cocklebur: 95
[7]; [15]
  Plant response rating, Cocklebur: 98
[7]; [19]
  Cocklebur plant response rating: 98
[7]; [20]
  Plant response rating, Cocklebur: 0
[7]; [17]
  Cocklebur plant response rating: 0
[8]; [13]
  Plant response rating, Morningglory: 100
[8]; [14]
  Plant response rating, Morningglory: 70
[8]; [15]
  Plant response rating, Morningglory: 80
[8]; [16]
  Plant response rating, Morningglory: 0
[8]; [20]
  Plant response rating, Morningglory: 100
[8]; [17]
  Morningglory plant response rating: 100
[9]; [21]
  Wheat plant response rating: 0
[9]; [22]
  Plant response rating, Wheat: 20
[9]; [23]
  Plant response rating, Wheat: 0
[9]; [24]
  Plant response rating, Wheat: 0
[10]; [21]
  Crabgrass, Large plant response rating: 90
[10]; [22]
  Plant response rating, Crabgrass, Large: 100
[10]; [23]
  Plant response rating, Crabgrass, Large: 90
[10]; [24]
  Plant response rating, Crabgrass, Large: 100
[11]; [21]
  Morningglory plant response rating: 90
[11]; [22]
  Plant response rating, Morningglory: 100
[11]; [23]
  Plant response rating, Morningglory: 40
[11]; [24]
  Plant response rating, Morningglory: 80
[12]; [21]
  Velvetleaf plant response rating: 100
[12]; [22]
  Plant response rating, Velvetleaf: 100
[12]; [23]
  Plant response rating, Velvetleaf: 80
[12]; [24]
  Plant response rating, Velvetleaf: 100

## CCn1c(-c2ccccc2)ncc(C(=O)C2=C(O)CCCC2=O)c1=O [Compound 49]
[1]; [25]
  Plant response rating, Wheat: 0
[1]; [13]
  Plant response rating, Wheat: 0
[1]; [14]
  Plant response rating, Wheat: 5
[1]; [15]
  Plant response rating, Wheat: 15
[1]; [16]
  Plant response rating, Wheat: 0
[1]; [17]
  Wheat plant response rating: 0
Kochia (Kochia scoparia); [25]
  Plant response rating, Kochia: 55
Kochia (Kochia scoparia); [14]
  Plant response rating, Kochia: 65
Kochia (Kochia scoparia); [15]
  Plant response rating, Kochia: 80
Kochia (Kochia scoparia); Postemergence
  Kochia plant response rating: 90
[2]; [25]
  Plant response rating, Foxtail, Green: 50
[2]; [13]
  Plant response rating, Foxtail, Green: 30
[2]; [14]
  Plant response rating, Foxtail, Green: 50
[2]; [15]
  Plant response rating, Foxtail, Green: 75
[2]; [19]
  Foxtail, Green plant response rating: 90
[2]; [16]
  Plant response rating, Foxtail, Green: 0
[2]; [20]
  Plant response rating, Foxtail, Green: 0
[2]; [17]
  Foxtail, Green plant response rating: 5
[3]; [25]
  Plant response rating, Goosegrass: 65
[3]; [13]
  Plant response rating, Goosegrass: 100
[3]; [14]
  Plant response rating, Goosegrass: 70
[3]; [15]
  Plant response rating, Goosegrass: 70
[3]; [19]
  Goosegrass plant response rating: 70
[3]; [16]
  Plant response rating, Goosegrass: 20
[3]; [17]
  Goosegrass plant response rating: 98
[4]; [25]
  Plant response rating, Bromegrass, Downy: 0
[4]; [14]
  Plant response rating, Bromegrass, Downy: 0
[4]; [15]
  Plant response rating, Bromegrass, Downy: 0
[4]; [19]
  Bromegrass, Downy plant response rating: 5
[4]; [16]
  Plant response rating, Bromegrass, Downy: 0
[4]; [20]
  Plant response rating, Bromegrass, Downy: 0
[4]; [17]
  Bromegrass, Downy plant response rating: 0
[5]; [25]
  Plant response rating, Pigweed: 80
[5]; [13]
  Plant response rating, Pigweed: 100
[5]; [14]
  Plant response rating, Pigweed: 90
[5]; [15]
  Plant response rating, Pigweed: 95
[5]; [16]
  Plant response rating, Pigweed: 100
[5]; [17]
  Pigweed plant response rating: 100
[6]; [25]
  Plant response rating, Foxtail, Giant: 45
[6]; [13]
  Plant response rating, Foxtail, Giant: 45
[6]; [14]
  Plant response rating, Foxtail, Giant: 60
[6]; [15]
  Plant response rating, Foxtail, Giant: 70
[6]; [19]
  Foxtail, Giant plant response rating: 75
[6]; [16]
  Plant response rating, Foxtail, Giant: 0
[6]; [20]
  Plant response rating, Foxtail, Giant: 0
[6]; [17]
  Foxtail, Giant plant response rating: 20
[7]; [25]
  Plant response rating, Cocklebur: 65
[7]; [13]
  Plant response rating, Cocklebur: 55
[7]; [14]
  Plant response rating, Cocklebur: 80
[7]; [15]
  Plant response rating, Cocklebur: 80
[7]; [19]
  Cocklebur plant response rating: 85
[7]; [16]
  Plant response rating, Cocklebur: 0
[7]; [20]
  Plant response rating, Cocklebur: 20
[7]; [17]
  Cocklebur plant response rating: 45
[8]; [25]
  Plant response rating, Morningglory: 65
[8]; [13]
  Plant response rating, Morningglory: 85
[8]; [14]
  Plant response rating, Morningglory: 80
[8]; [15]
  Plant response rating, Morningglory: 80
[8]; [16]
  Plant response rating, Morningglory: 45
[8]; [20]
  Plant response rating, Morningglory: 80
[8]; [17]
  Morningglory plant response rating: 80
[9]; [21]
  Wheat plant response rating: 0
[9]; [22]
  Plant response rating, Wheat: 0
[9]; [23]
  Plant response rating, Wheat: 0
[9]; [24]
  Plant response rating, Wheat: 0
[10]; [21]
  Crabgrass, Large plant response rating: 90
[10]; [22]
  Plant response rating, Crabgrass, Large: 90
[10]; [23]
  Plant response rating, Crabgrass, Large: 60
[10]; [24]
  Plant response rating, Crabgrass, Large: 90
[11]; [21]
  Morningglory plant response rating: 100
[11]; [22]
  Plant response rating, Morningglory: 100
[11]; [23]
  Plant response rating, Morningglory: 30
[11]; [24]
  Plant response rating, Morningglory: 80
[12]; [21]
  Velvetleaf plant response rating: 100
[12]; [22]
  Plant response rating, Velvetleaf: 100
[12]; [23]
  Plant response rating, Velvetleaf: 80
[12]; [24]
  Plant response rating, Velvetleaf: 90
